According to patent US20250186396A1, “COMPOSITIONS AND METHODS FOR THE TREATMENT OF GLIOBLASTOMA WITH A DUAL TARGETING ANTI-TUMOR COMPOSITION” (Northwestern University, priority 2023, published 2025):

Tests used:
[1] = tested on: HMC3 microglia; assay: Transwell migration assay of HMC3 microglia with U87 conditioned media; type: cell-based; conditions: conditioned media from U87 cells pretreated with BAPN 200 μM; 10 hours
Method: Migration assay. To study the relationship between macrophages and microglia, HMC3 microglia or THP-1 macrophages were seeded into the 24-well plates (receiver wells) using serum-containing culture medium for 24 hours to reach 40-60% confluence and then stimulated with or without U87 cell CM for additional 24 hours. After that, cells were washed with PBS twice and cultured in serum-free culture medium. For upper chambers, THP-1 macrophages (2×10^5) and HMC3 microglia (5×10^4) were suspended in serum-free culture medium and seeded into […] (Corning, #3421) and […] (Corning, #3422) 24-well Transwell inserts, respectively. To study the role of GBM cells on microglia migration, HMC3 microglia (5×10^4) were suspended in serum-free culture medium and seeded into 8.0 μm inserts. SIM-A9 microglia (1×10^5) and THP-1 macrophages (1×10^5) were suspended in serum-free culture medium and seeded into 5.0 μm inserts. The CM from LOX-depleted or inhibited U87 cells, LOX-overexpressed GL261 cells, or SR9009-treated U87 cells were added to the receiver wells, respectively. After 10 hours, migrated cells were fixed with 4% PFA (ThermoFisher, #J61899.AK) for 30 minutes and stained with crystal violet (Sigma-Aldrich, #C-3886) for another 30 minutes. The membrane inserts were washed with water and imaged under an EVOS microscope. The number of transferred cells was counted using ImageJ.

[2] = tested on: PATZ1 and PRRX1; assay: RT-qPCR of transcription factors in PTEN-null GBM cells; type: cell-based, human; conditions: U87 and U251 cells; BAPN 200 μM
Method: Cell Culture. The GBM cell lines U87, U251, SF763, LN229, and CT2A, as well as 293T cells were cultured in Dulbecco's Modified Eagle's Medium (DMEM; Gibco, #11995-065). The mouse glioma cell line GL261 cells and SIM-A9 microglia were cultured in Dulbecco's Modified Eagle Medium-Ham's F12 medium (Gibco, #10565-018). HMC3 microglia were cultured in Eagle's Minimum Essential Medium (ATCC, #30-2003). THP-1 macrophages were cultured in RPMI 1640 medium (Gibco, #11875093). All cell lines were cultured in the indicated medium containing 10% fetal bovine serum (FBS; Fisher Scientific, #16140071) and 1:100 antibiotic-antimycotic (Gibco, #15140-122), and were purchased from the American Type Culture Collection (ATCC). Human GSCs (GSC23 and GSC7-10) and mouse GBM tumor-derived 005 GSCs and QPP7 GSCs were cultured in neural stem cell (NSC) proliferation media (Millipore, #SCM005) containing 20 ng/mL epidermal growth factor (EGF; PeproTech, #AF-100-15) and basic fibroblast growth factor (bFGF; PeproTech, #100-18B). Human GSCs were gifted by Dr. Frederick F. Lang from the Brain Tumor Center (The University of Texas MD Anderson Cancer Center). […]
Quantitative real-time PCR (RT-qPCR). […] RNA was quantified by NanoDrop spectrophotometers and then the All-In-One 5× RT MasterMix (Applied Biological Materials, #G592) was used to reverse-transcribe RNA into cDNA in T100 Thermal Cycler (Bio-Rad). […]

[3] = tested on: 005 GSCs; assay: Survival of mice intracranially implanted with 005 GSCs; type: in vivo, C57BL/6 mice; conditions: 005 GSCs 2×10^5 cells/mouse; BAPN 2 g/L drinking water from day 4; SR9009 100 mg/kg i.p. 10 days from day 7; anti-PD1 10 mg/kg i.p. days 11, 14, 17; radiation 2.5 Gy 4 days from day 7
Method: Mice and Intracranial Xenograft Tumor Models. Female C57BL/6 mice at 3 to 4 weeks of age were purchased from the Jackson Laboratory (#0000664). All animals were grouped by 5 mice per cage and maintained in IVC System (San Diego, CA) for a week before the experiment. All animal experiments were performed with the approval of the Institutional Animal Care and Use Committee (IACUC) at Northwestern University. The intracranial xenograft tumor models were established previously. In brief, mice were anesthetized by isoflurane through IMPAC6 Anesthesia System. Then a dental drill was used to open a small hole in the skull of mice 1.2 mm anterior and 3.0 mm lateral to the bregma. Mice were placed into the stereotactic apparatus, and 5 μL 005 GSC, CT2A, or GL261 cells in FBS-free culture medium were injected into the right caudate nucleus 3 mm below the surface of the brain using a 10 μL Hamilton syringe with an unbeveled 30-gauge needle. The incision was closed using Vetbond glue. Meloxicam (20 mg/kg, daily) was subcutaneously injected for pain relief for 3 days after surgery. […]
Statistical analysis. […] The survival analysis for animal models was determined by conducting Log-rank (Mantel-Cox) test. […]

## N#CCCN [BAPN, β-aminopropionitrile]
[1]
  migration of HMC3 microglia: increased the migration ability
[2]
  mRNA expression of PATZ1: upregulated
  mRNA expression of PRRX1: upregulated
[3]
  survival: extended the survival
